Structures are written as SMILES.

A short description of the data set: Human intestinal absorption in po dosed human. Conditions: in vivo.
Compound `CC(C)NCC(O)c1cc(O)cc(O)c1` (configuration not stated) [METAPROTERENOL] gave a Fa of 44%.

With `CN(C)C(=N)N=C(N)N` [METFORMIN], the Fa was 53%.

`CCC(=O)C(CC(C)N(C)C)(c1ccccc1)c1ccccc1` (configuration not stated) [METHADONE] had a Fa of 80%.

`CN(Cc1cnc2nc(N)nc(N)c2n1)c1ccc(C(=O)N[C@@H](CCC(=O)O)C(=O)O)cc1` [METHOTREXATE]: the Fa turned out to be 70%.

On to `C[C@](N)(Cc1ccc(O)c(O)c1)C(=O)O` [METHYLDOPA], for which the Fa worked out at 41%.

In turn, `C[C@H]1C[C@@H]2[C@H]([C@@H](O)C[C@@]3(C)[C@H]2CC[C@]3(O)C(=O)CO)[C@@]2(C)C=CC(=O)C=C12` [METHYLPREDNISOLONE] showed a Fa of 82%.

`Cc1cccc(C)c1OCC(C)N` (configuration not stated) [MEXILETINE] displayed a Fa of 100%.

`COCC(=O)O[C@]1(CCN(C)CCCc2nc3ccccc3[nH]2)CCc2cc(F)ccc2[C@@H]1C(C)C` [MIBEFRADIL]: the Fa is 69%.

Regarding `COP(=O)(OC)OC(c1ccc(Cl)cc1)P(=O)(OC)OC` (configuration not stated) [MIFOBATE], the Fa was found to be 81%.

Compound `Nc1cc(N2CCCCC2)nc(N)[n+]1[O-]` [MINOXIDIL] displayed a Fa of 98%.

Compound `COc1nc(C)nc(Cl)c1N=C1NCCN1` [MOXONIDINE] registered a Fa of 87%.

In turn, `CC(C)(C)NCC(O)COc1cccc2c1CC(O)C(O)C2` (configuration not stated) [NADOLOL] came in with a Fa of 57%.

As for `CCc1nn(CCCN2CCN(c3cccc(Cl)c3)CC2)c(=O)n1CCOc1ccccc1` [NEFAZODONE], the Fa amounted to 100%.

`CC#Cc1cn([C@@H]2O[C@H](CO)[C@@H](O)[C@@H]2O)c(=O)[nH]c1=O` [NETIVUDINE] had a Fa of 28%.

On to `O=C(O)c1cccnc1` [NIACIN], for which the Fa worked out at 88%.

Take `COC(=O)C1=C(C)NC(C)=C(C(=O)OCC(C)C)C1c1ccccc1[N+](=O)[O-]` (configuration not stated) [NISOLDIPINE]: the Fa turned out to be 89%.

`CCOC(=O)C1=C(C)NC(C)=C(C(=O)OC)C1c1cccc([N+](=O)[O-])c1` (configuration not stated) [NITRENDIPINE] returned a Fa of 88%.

As to `CNC(=C[N+](=O)[O-])NCCSCc1csc(CN(C)C)n1` [NIZATIDINE], the Fa was 90%.

Consider `CC1COc2c(N3CCN(C)CC3)c(F)cc3c(=O)c(C(=O)O)cn1c23` (configuration not stated) [OFLOXACIN], for which the Fa was found to be 100%.

`O=C(O)c1cc(/N=N/c2ccc(O)c(C(=O)O)c2)ccc1O` [OLSALAZINE] registered a Fa of 24%.

Regarding `Cc1nccn1CC1CCc2c(c3ccccc3n2C)C1=O` (configuration not stated) [ONDANSETRON], the Fa was 100%.

As to `C[C@@H]1O[C@@H](O[C@H]2C[C@@H](O)[C@]3(CO)[C@H]4[C@H](O)C[C@]5(C)[C@@H](C6=CC(=O)OC6)CC[C@]5(O)[C@@H]4CC[C@]3(O)C2)[C@H](O)[C@H](O)[C@H]1O` [OUABAIN], the Fa is 1%.

`O=c1[nH]c2ccccc2n1CCCN1CCN(C(c2ccccc2)c2ccccc2)CC1` [OXATOMIDE]: the Fa was determined as 100%.

Compound `C=CCOc1ccccc1OCC(O)CNC(C)C` (configuration not stated) [OXPRENOLOL] registered a Fa of 95%.

Consider `COc1cccc(C(=O)CCN[C@@H](C)[C@H](O)c2ccccc2)c1` [OXYFEDRINE], for which the Fa came out at 84%.

With `CC(C)NCC(O)COc1ccc(CCNC(=O)NC(C)C)cc1` (configuration not stated) [PAFENOLOL], the Fa amounted to 29%.

On to `CCn1cc(C(=O)O)c(=O)c2cc(F)c(N3CCN(C)CC3)cc21` [PEFLOXACIN], for which the Fa stood at 100%.

`CC1(C)S[C@@H]2[C@H](NC(=O)Cc3ccccc3)C(=O)N2[C@H]1C(=O)O` [PENICILLIN G] displayed a Fa of 30%.

For the compound `CC1(C)S[C@@H]2[C@H](NC(=O)COc3ccccc3)C(=O)N2[C@H]1C(=O)O` [PENICILLIN V], the Fa stood at 59%.

Take `CCN(CC)CCC1(c2ccccc2)CCC(=O)NC1=O` (configuration not stated) [PHENGLUTARIMIDE]: the Fa is 100%.

Turning to `O=C1NC(=O)C(c2ccccc2)(c2ccccc2)N1` [PHENYTOIN], the Fa was 90%.

In turn, `CC(C)NCC(O)COc1cccc2[nH]ccc12` (configuration not stated) [PINDOLOL] had a Fa of 87%.

The compound `CC(C)(C)NCC(O)c1ccc(O)c(CO)n1` (configuration not stated) [PIRBUTEROL] registered a Fa of 60%.

In turn, `CN1C(C(=O)Nc2ccccn2)=C(O)c2ccccc2S1(=O)=O` [PIROXICAM] yielded a Fa of 100%.

Compound `CCc1[nH]c(=O)[nH]c1C(=O)c1ccncc1` [PIROXIMONE] showed a Fa of 80%.

Turning to `CC[C@H](C)C(=O)O[C@H]1C[C@H](O)C=C2C=C[C@H](C)[C@H](CC[C@@H](O)C[C@@H](O)CC(=O)O)[C@H]21` [PRAVASTATIN], the Fa is 34%.

Compound `O=C(C1CCCCC1)N1CC(=O)N2CCc3ccccc3C2C1` (configuration not stated) [PRAZIQUANTEL] showed a Fa of 100%.

Regarding `COc1cc2nc(N3CCN(C(=O)c4ccco4)CC3)nc(N)c2cc1OC` [PRAZOSIN], the Fa is 86%.

The compound `C[C@]12C=CC(=O)C=C1CC[C@@H]1[C@@H]2[C@@H](O)C[C@@]2(C)[C@H]1CC[C@]2(O)C(=O)CO` [PREDNISOLONE] gave a Fa of 99%.

Compound `CCCOC(C(=O)OC1CCN(C)CC1)(c1ccccc1)c1ccccc1` [PROPIVERINE] registered a Fa of 84%.

`CCCc1cc(=O)[nH]c(=S)[nH]1` [PROPYLTHIOURACIL] came in with a Fa of 76%.

With `C=C[C@H]1C[N@@]2CC[C@H]1C[C@@H]2[C@@H](O)c1ccnc2ccc(OC)cc12` [QUINIDINE], the Fa is 81%.

`Cn1c(=O)c2c(ncn2CCCNCC(O)c2cc(O)cc(O)c2)n(C)c1=O` (configuration not stated) [REPROTEROL] returned a Fa of 60%.

`NC(=O)c1ncn([C@@H]2O[C@H](CO)[C@@H](O)[C@H]2O)n1` [RIBAVIRIN] gave a Fa of 33%.

In the case of `Oc1ccc(C(O)C2CCCCN2)cc1O` (configuration not stated) [RIMITEROL], the Fa came to 48%.

Take `O=C1NS(=O)(=O)c2ccccc21` [SACCHARIN]: the Fa came out at 88%.

Compound `O=C(O)c1ccccc1O` [SALICYLIC ACID] registered a Fa of 100%.

For `O=c1[nH]c(=O)n([C@@H]2O[C@H](CO)[C@@H](O)[C@@H]2O)cc1/C=C/Br` [SORIVUDINE], the Fa was found to be 82%.

`CC(C)NCC(O)c1ccc(NS(C)(=O)=O)cc1` (configuration not stated) [SOTALOL] registered a Fa of 95%.

Consider `CC(=O)S[C@@H]1CC2=CC(=O)CC[C@]2(C)[C@H]2CC[C@@]3(C)[C@@H](CC[C@@]34CCC(=O)O4)[C@H]12` [SPIRONOLACTONE], for which the Fa turned out to be 73%.

In the case of `Cc1cn([C@H]2C=C[C@@H](CO)O2)c(=O)[nH]c1=O` [STAVUDINE], the Fa was 100%.

In turn, `CN1C(C(=O)Nc2nccs2)=C(O)c2ccccc2S1(=O)=O` [SUDOXICAM] had a Fa of 100%.

For the compound `O=C(O)c1cc(/N=N/c2ccc(S(=O)(=O)Nc3ccccn3)cc2)ccc1O` [SULFASALAZINE], the Fa came to 59%.

As to `CCN1CCCC1CNC(=O)c1cc(S(N)(=O)=O)ccc1OC` (configuration not stated) [SULPIRIDE], the Fa is 44%.

Take `CCN1CCCC1CNC(=O)c1cc(S(=O)(=O)CC)ccc1OC` (configuration not stated) [SULTOPRIDE]: the Fa amounted to 89%.

`NC(=O)N1C(=O)/C(=C(\O)c2cccs2)c2cc(Cl)ccc21` [TENIDAP] displayed a Fa of 89%.

The compound `CN1C(C(=O)Nc2ccccn2)=C(O)c2sccc2S1(=O)=O` [TENOXICAM] returned a Fa of 100%.

In turn, `COc1cc2nc(N3CCN(C(=O)C4CCCO4)CC3)nc(N)c2cc1OC` (configuration not stated) [TERAZOSIN] registered a Fa of 90%.

In the case of `CC(C)(C)NCC(O)c1cc(O)cc(O)c1` (configuration not stated) [TERBUTALINE], the Fa came out at 62%.

Turning to `C[C@]12CC[C@H]3[C@@H](CCC4=CC(=O)CC[C@@]43C)[C@@H]1CC[C@@H]2O` [TESTOSTERONE], the Fa stood at 100%.

The compound `Cn1c(=O)c2[nH]cnc2n(C)c1=O.O` [THEOPHYLLINE] yielded a Fa of 100%.

As to `Cc1ccsc1C(=CCCN1CCC[C@@H](C(=O)O)C1)c1sccc1C` [TIAGABINE], the Fa turned out to be 90%.

In turn, `CC(C)(C)NC[C@H](O)COc1nsnc1N1CCOCC1` [TIMOLOL] displayed a Fa of 95%.

`COc1cc(C)c([S+](C)[O-])cc1OC` (configuration not stated) [TOLMESOXIDE]: the Fa is 98%.

Regarding `CC1(C)O[C@@H]2[C@@H](CO[C@@]3(COS(N)(=O)=O)OC(C)(C)O[C@@H]23)O1` [TOPIRAMATE], the Fa stood at 86%.

In the case of `CN(C)CCOc1ccc(/C(=C(/CCCl)c2ccccc2)c2ccccc2)cc1` [TOREMIFENE], the Fa stood at 100%.

The compound `Cc1cccc(Nc2ccncc2S(=O)(=O)NC(=O)NC(C)C)c1` [TORSEMIDE] registered a Fa of 96%.

Turning to `COc1cccc(C2(O)CCCCC2CN(C)C)c1` (configuration not stated) [TRAMADOL], the Fa turned out to be 90%.

Compound `COc1cc(Cc2cnc(N)nc2N)cc(OC)c1OC` [TRIMETHOPRIM] showed a Fa of 97%.

As for `N[C@@H]1[C@H]2CN(c3nc4c(cc3F)c(=O)c(C(=O)O)cn4-c3ccc(F)cc3F)C[C@@H]12` [TROVAFLOXACIN], the Fa was found to be 88%.

As to `CCCC(CCC)C(=O)[O-].[Na+]` [VALPROATE SODIUM], the Fa was 100%.

`COc1ccc(C(CN(C)C)C2(O)CCCCC2)cc1` (configuration not stated) [VENLAFAXINE]: the Fa was found to be 97%.

`C=CC(N)CCC(=O)O` (configuration not stated) [VIGABATRIN] came in with a Fa of 58%.

Compound `CCOc1ccccc1OCC1CNCCO1` (configuration not stated) [VILOXAZINE] showed a Fa of 98%.

With `CC(C(=O)O)c1ccc(C2CCCC(=NO)C2)cc1` (configuration not stated) [XIMOPROFEN], the Fa is 98%.

With `Cc1cn([C@H]2C[C@H](N=[N+]=[N-])[C@@H](CO)O2)c(=O)[nH]c1=O` [ZIDOVUDINE], the Fa was found to be 100%.

Compound `O=C1Cc2cc(CCN3CCN(c4nsc5ccccc45)CC3)c(Cl)cc2N1` [ZIPRASIDONE] had a Fa of 60%.

For the origin of these results see ChEMBL document CHEMBL1157012, “Neural computational prediction of oral drug absorption based on CODES 2D descriptors” (Eur J Med Chem, 2010).
